Reference: US20100286145A1, “ISOPHTHALAMIDE DERIVATIVES INHIBITING BETA-SECRETASE ACTIVITY” (CoMentis, Inc., priority 2007, published 2010)
Like-named read-outs stand apart in the source and are kept apart here.

Columns and labels:
memapsin 2 = memapsin 2 (Homo sapiens, UniProt P56817); test: Inhibition of memapsin 2 beta-secretase activity (fluorogenic substrate FS-2); type: biochemical; details: memapsin 2, pH 4, 37° C., fluorogenic substrate FS-2; read-out: M2Ki
In short: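 Kinetic fluorogenic assay: hydrolysis of the MCA/DNP-labelled APP Swedish-variant peptide FS-2 monitored as fluorescence rise at 37° C, pH 4, after 20 min enzyme–compound preincubation. Relative rates fitted with a tight-binding inhibitor model.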

[1] = tested on: Aβ production in Chinese hamster ovary cells that over-express human APP695 with the London and Swedish mutations; test: Cellular Aβ IC50 determination (Aβ40 sandwich ELISA); type: cell-based; details: Cricetulus griseus
In short: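 Aβ40 in media quantified by sandwich ELISA, normalized to control incubations and fitted with a 4-parameter IC50 model. Compounds dosed to a final concentration near 4 μM (0.4% DMSO) on CHO cells expressing human APP695 (London and Swedish mutants) seeded at 10% confluency.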

[2] = cellular Aβ production, read-out: IC50

Sequence of memapsin 2 (P56817 46-501): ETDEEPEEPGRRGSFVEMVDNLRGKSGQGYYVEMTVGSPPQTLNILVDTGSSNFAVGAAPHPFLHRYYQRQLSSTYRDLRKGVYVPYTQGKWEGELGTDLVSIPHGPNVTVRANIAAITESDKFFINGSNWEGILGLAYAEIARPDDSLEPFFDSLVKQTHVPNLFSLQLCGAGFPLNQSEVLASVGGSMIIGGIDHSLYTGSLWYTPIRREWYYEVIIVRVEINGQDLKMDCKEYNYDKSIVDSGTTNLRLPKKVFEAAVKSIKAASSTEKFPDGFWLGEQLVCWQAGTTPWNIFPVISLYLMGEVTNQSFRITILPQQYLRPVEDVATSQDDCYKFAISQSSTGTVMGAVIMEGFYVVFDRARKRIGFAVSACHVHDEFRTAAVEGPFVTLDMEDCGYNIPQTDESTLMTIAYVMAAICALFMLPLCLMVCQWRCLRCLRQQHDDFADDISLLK

SMILES | Ki (memapsin 2) [nM] | IC50 [1, 2] [nM] | IC50 [1] [nM]
Cc1csc(CN(C)C(=O)c2cccc(C(=O)N[C@@H](Cc3ccccc3)[C@H](O)CNCc3cc(OC(=O)N4CCOCC4)cc(C(C)C)c3)c2)n1 [Compound 234, 3-(((2R,3S)-2-hydroxy-3-(3-(methyl((4-methylthiazol-2-yl)methyl)carbamoyl)benzamido)-4-phenylbutylamino)methyl)-5-isopropylphenyl morpholine-4-carboxylate] | < 300 | – | < 1000
Cc1csc(CN(C)C(=O)c2cc(C(=O)N[C@@H](Cc3ccccc3)[C@H](O)CNCc3cncc(C(C)C)c3)cc(-n3cccc3)c2)n1 [Compound 239, N1-((2S,3R)-3-hydroxy-4-((5-isopropylpyridin-3-yl)methylamino)-1-phenylbutan-2-yl)-N3-methyl-N3-((4-methylthiazol-2-yl)methyl)-5-(1H-pyrrol-1-yl)isophthalamide] | < 300 | < 1000 | –
Cc1nc(CN(C)C(=O)c2cccc(C(=O)N[C@@H](Cc3ccccc3)[C@H](O)CNCc3cncc(C(C)C)c3)c2)no1 [Compound 240, N1-((2S,3R)-3-hydroxy-4-((5-isopropylpyridin-3-yl)methylamino)-1-phenylbutan-2-yl)-N3-methyl-N3-((5-methyl-1,2,4-oxadiazol-3-yl)methyl)isophthalamide] | 301 to 500 | 1000 to 5000 | –
COc1cccc(CNC[C@@H](O)[C@H](Cc2ccccc2)NC(=O)c2cc(C(=O)N(C)Cc3nc(C)cs3)cc(N3CCC(O)C3)c2)c1 (stereo partly drawn) [Compound 241, N1-((2S,3R)-3-hydroxy-4-(3-methoxybenzylamino)-1-phenylbutan-2-yl)-5-(3-hydroxypyrrolidin-1-yl)-N3-methyl-N3-((4-methylthiazol-2-yl)methyl)isophthalamide] | < 300 | 1000 to 5000 | –
Cc1csc(CN(C)C(=O)c2cc(C(=O)N[C@@H](Cc3ccccc3)[C@H](O)CNCc3cncc(C(C)C)c3)cc(N3CCC(O)C3)c2)n1 (stereo partly drawn) [Compound 242, N1-((2S,3R)-3-hydroxy-4-((5-isopropylpyridin-3-yl)methylamino)-1-phenylbutan-2-yl)-5-(3-hydroxypyrrolidin-1-yl)-N3-methyl-N3-((4-methylthiazol-2-yl)methyl)isophthalamide] | < 300 | < 1000 | –
CC(=O)Oc1cc(CNC[C@@H](O)[C@H](Cc2ccccc2)NC(=O)c2cccc(C(=O)N(C)Cc3nc(C)cs3)c2)cc(C(C)C)c1 [Compound 243, 3-(((2R,3S)-2-hydroxy-3-(3-(methyl((4-methylthiazol-2-yl)methyl)carbamoyl)benzamido)-4-phenylbutylamino)methyl)-5-isopropylphenyl acetate] | < 300 | < 1000 | –
CC(=O)c1cc(C(=O)N[C@@H](Cc2ccccc2)[C@H](O)CNCc2cccc(C(F)(F)F)c2)cc(C(=O)N(C)Cc2nc(C)cs2)c1 [Compound 244, 5-acetyl-N1-((2S,3R)-3-hydroxy-1-phenyl-4-(3-(trifluoromethyl)benzylamino)butan-2-yl)-N3-methyl-N3-((4-methylthiazol-2-yl)methyl)isophthalamide] | < 300 | < 1000 | –
Cc1csc(CN(C)C(=O)c2cc(C(=O)N[C@@H](Cc3ccccc3)[C@H](O)CNCc3cncc(C(C)(F)F)c3)cc(C(F)F)c2)n1 [Compound 245, N1-((2S,3R)-4-((5-(1,1-difluoroethyl)pyridin-3-yl)methylamino)-3-hydroxy-1-phenylbutan-2-yl)-5-(difluoromethyl)-N3-methyl-N3-((4-methylthiazol-2-yl)methyl)isophthalamide] | < 300 | < 1000 | –
Cc1csc(CN(C)C(=O)c2cccc(C(=O)N[C@@H](Cc3ccccc3)[C@H](O)CNCc3cc(C#N)cc(C(C)C)c3)c2)n1 [Compound 248, N1-((2S,3R)-4-(3-cyano-5-isopropylbenzylamino)-3-hydroxy-1-phenylbutan-2-yl)-N3-methyl-N3-((4-methylthiazol-2-yl)methyl)isophthalamide] | < 300 | < 1000 | –

Second part, led by results:

Ki (memapsin 2) [nM] | IC50 [1, 2] [nM] | SMILES | IC50 [1] [nM]
< 300 | < 1000 | COc1cccc(CNC[C@@H](O)[C@H](Cc2ccccc2)NC(=O)c2cc(C(=O)N(C)Cc3nc(C)cs3)cc(N3CCCCC3)c2)c1 [Compound 230, N1-((2S,3R)-3-hydroxy-4-(3-methoxybenzylamino)-1-phenylbutan-2-yl)-N3-methyl-N3-((4-methylthiazol-2-yl)methyl)-5-(piperidin-1-yl)isophthalamide] | –
< 300 | > 5000 | Cc1csc(CN(C)C(=O)c2cc(C(=O)N[C@@H](Cc3ccccc3)[C@H](O)CNCc3cncc(C(C)C)c3)cc(N3CCCCC3)c2)n1 [Compound 231, N1-((2S,3R)-3-hydroxy-4-((5-isopropylpyridin-3-yl)methylamino)-1-phenylbutan-2-yl)-N3-methyl-N3-((4-methylthiazol-2-yl)methyl)-5-(piperidin-1-yl)isophthalamide] | –
< 300 | < 1000 | Cc1cc(C(=O)N[C@@H](Cc2ccccc2)[C@H](O)CNCc2cccc(C(F)(F)F)c2)cc(C(=O)N(C)Cc2nc(C)cs2)c1 [Compound 232, N1-((2S,3R)-3-hydroxy-1-phenyl-4-(3-(trifluoromethyl)benzylamino)butan-2-yl)-N3,5-dimethyl-N3-((4-methylthiazol-2-yl)methyl)isophthalamide] | –
< 300 | < 1000 | Cc1csc(CN(C)C(=O)c2cc(C(=O)N[C@@H](Cc3ccccc3)[C@H](O)CNCc3cccc(C(F)(F)F)c3)cc(N3CCCC3=O)c2)n1 [Compound 233, N1-((2S,3R)-3-hydroxy-1-phenyl-4-(3-(trifluoromethyl)benzylamino)butan-2-yl)-N3-methyl-N3-((4-methylthiazol-2-yl)methyl)-5-(2-oxopyrrolidin-1-yl)isophthalamide] | –
< 300 | < 1000 | Cc1noc(CN(C)C(=O)c2cccc(C(=O)N[C@@H](Cc3ccccc3)[C@H](O)CNCc3cncc(C(C)C)c3)c2)n1 [Compound 235, N1-((2S,3R)-3-hydroxy-4-((5-isopropylpyridin-3-yl)methylamino)-1-phenylbutan-2-yl)-N3-methyl-N3-((3-methyl-1,2,4-oxadiazol-5-yl)methyl)isophthalamide] | –
< 300 | < 1000 | Cc1csc(CN(C)C(=O)c2cccc(C(=O)N[C@@H](Cc3ccccc3)[C@H](O)CNCc3cc(Cl)cc(Cl)c3)c2)n1 [Compound 236, N1-((2S,3R)-4-(3,5-dichlorobenzylamino)-3-hydroxy-1-phenylbutan-2-yl)-N3-methyl-N3-((4-methylthiazol-2-yl)methyl)isophthalamide] | –
< 300 | < 1000 | CC(=O)c1cc(C(=O)N[C@@H](Cc2ccccc2)[C@H](O)CNCc2cncc(C(C)C)c2)cc(C(=O)N(C)Cc2nc(C)cs2)c1 [Compound 237, 5-acetyl-N1-((2S,3R)-3-hydroxy-4-((5-isopropylpyridin-3-yl)methylamino)-1-phenylbutan-2-yl)-N3-methyl-N3-((4-methylthiazol-2-yl)methyl)isophthalamide] | –
< 300 | < 1000 | COc1cccc(CNC[C@@H](O)[C@H](Cc2ccccc2)NC(=O)c2cc(C(=O)N(C)Cc3nc(C)cs3)cc(-n3cccc3)c2)c1 [Compound 238, N1-((2S,3R)-3-hydroxy-4-(3-methoxybenzylamino)-1-phenylbutan-2-yl)-N3-methyl-N3-((4-methylthiazol-2-yl)methyl)-5-(1H-pyrrol-1-yl)isophthalamide] | –
